By Ki is commonly meant the dissociation constant of the complex between target and ligand, obtained from inhibition or displacement. Read a low Ki as higher affinity.

The record followed here is BindingDB's records for doi:10.1002/1520-636X(2001)13:3 (University of Maryland, 2001).

The target in test [1] is Kappa-type opioid receptor (Rattus norvegicus, UniProt P34975).
Test [2] addresses Delta-type opioid receptor (Mus musculus, UniProt P32300).
A further test addresses Mu-type opioid receptor (Rattus norvegicus, UniProt P33535).

Molecules are shown by their SMILES. Bounds are passed on as bounds.

Sequence of Delta-type opioid receptor (P32300 whole entry): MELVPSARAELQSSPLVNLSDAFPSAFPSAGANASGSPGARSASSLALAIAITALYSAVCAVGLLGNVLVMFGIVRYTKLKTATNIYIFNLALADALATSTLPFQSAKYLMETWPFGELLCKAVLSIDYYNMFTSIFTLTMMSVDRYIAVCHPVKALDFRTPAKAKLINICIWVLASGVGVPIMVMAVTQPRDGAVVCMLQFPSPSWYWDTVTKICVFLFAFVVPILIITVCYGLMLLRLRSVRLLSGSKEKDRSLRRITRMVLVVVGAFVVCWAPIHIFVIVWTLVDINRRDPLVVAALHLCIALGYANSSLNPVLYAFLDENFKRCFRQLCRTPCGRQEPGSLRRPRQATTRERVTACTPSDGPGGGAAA
Sequence of Mu-type opioid receptor (P33535 whole entry): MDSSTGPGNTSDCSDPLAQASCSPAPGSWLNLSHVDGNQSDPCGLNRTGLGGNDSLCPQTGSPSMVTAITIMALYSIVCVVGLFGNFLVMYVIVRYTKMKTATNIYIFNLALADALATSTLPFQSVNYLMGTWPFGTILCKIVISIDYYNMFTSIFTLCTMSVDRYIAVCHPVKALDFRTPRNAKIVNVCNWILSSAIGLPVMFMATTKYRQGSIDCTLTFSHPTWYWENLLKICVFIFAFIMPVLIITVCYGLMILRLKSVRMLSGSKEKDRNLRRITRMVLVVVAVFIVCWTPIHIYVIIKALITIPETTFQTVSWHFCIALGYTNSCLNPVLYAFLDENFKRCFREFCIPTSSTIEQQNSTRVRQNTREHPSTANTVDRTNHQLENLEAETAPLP
Sequence of Kappa-type opioid receptor (P34975 whole entry): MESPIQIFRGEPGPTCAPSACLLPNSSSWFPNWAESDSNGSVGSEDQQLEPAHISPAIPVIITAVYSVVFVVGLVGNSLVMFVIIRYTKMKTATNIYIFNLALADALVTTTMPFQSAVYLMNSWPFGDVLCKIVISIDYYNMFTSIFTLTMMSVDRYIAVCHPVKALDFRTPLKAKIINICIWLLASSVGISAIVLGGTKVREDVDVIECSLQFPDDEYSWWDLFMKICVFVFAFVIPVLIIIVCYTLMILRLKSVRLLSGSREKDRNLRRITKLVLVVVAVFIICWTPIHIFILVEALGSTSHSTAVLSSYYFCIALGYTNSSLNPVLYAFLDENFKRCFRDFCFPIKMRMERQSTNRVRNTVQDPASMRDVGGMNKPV

For `CC(C)C[C@H](NC(=O)[C@H](Cc1ccccc1)NC(=O)CNC(=O)CNC(=O)[C@@H](N)Cc1ccc(O)cc1)C(=O)N[C@@H](CCCN=C(N)N)C(=O)N[C@@H](CCCN=C(N)N)C(=O)N[C@H](C)C(=O)N[C@@H](CCCN=C(N)N)C(=O)N1CCC[C@H]1C(=O)N[C@@H](CCCCN)C(N)=O` [[D-Ala8]Dyn A-(1-11)NH2], the affinity in test [1], expressed as Ki, was 0.00953 µM. As for `CC(C)C[C@H](NC(=O)[C@@H](Cc1ccccc1)NC(=O)CNC(=O)CNC(=O)[C@@H](N)Cc1ccc(O)cc1)C(=O)N[C@@H](CCCN=C(N)N)C(=O)N[C@@H](CCCN=C(N)N)C(=O)N[C@H](C)C(=O)N[C@@H](CCCN=C(N)N)C(=O)N1CCC[C@H]1C(=O)N[C@@H](CCCCN)C(N)=O` [[D-Phe4, D-Ala8]Dyn A-(1-11)NH2], the Ki in test [2] is more than 10 µM; at Mu-type opioid receptor it was 0.0882 µM.
